Assays:
Format in all cases: in vitro ADME
[1] = target: T1, CYP2C8 (Homo sapiens, UniProt P10632); assay: Kinetic analysis (Ki, inhibition type) in human liver microsomes: amodiaquine N-deethylation; settings: pooled human liver microsomes
T1 construct: pooled human liver microsomes (0.25 mg/mL); tissue BD Gentest Co. H161; host or cells: pooled human liver microsomes
T1 sequence (P10632 1-490): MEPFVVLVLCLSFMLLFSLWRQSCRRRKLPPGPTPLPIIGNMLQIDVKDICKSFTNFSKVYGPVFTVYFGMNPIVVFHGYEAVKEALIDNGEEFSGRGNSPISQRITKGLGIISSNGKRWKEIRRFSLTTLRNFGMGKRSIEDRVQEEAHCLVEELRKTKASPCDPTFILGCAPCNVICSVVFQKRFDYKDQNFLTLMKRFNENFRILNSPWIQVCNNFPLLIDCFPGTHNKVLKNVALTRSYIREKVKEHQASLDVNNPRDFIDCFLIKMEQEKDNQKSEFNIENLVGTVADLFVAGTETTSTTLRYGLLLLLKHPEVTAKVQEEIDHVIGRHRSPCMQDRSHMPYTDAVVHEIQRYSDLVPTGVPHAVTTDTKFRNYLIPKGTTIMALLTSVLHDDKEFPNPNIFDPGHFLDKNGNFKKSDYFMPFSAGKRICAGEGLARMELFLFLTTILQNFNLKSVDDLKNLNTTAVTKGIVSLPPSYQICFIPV
Method: (§1) The Ki values and inhibition types (competitive, noncompetitive, uncompetitive, or mixed) were determined for eupatilin and jaceosidin using Lineweaver plots, Dixon plots, and secondary reciprocal plots.
(§2) The reactions were initiated by addition of NADPH at 37 °C and stopped after 15 min by placing the incubation tubes on ice and adding 100 μL of ice-cold methanol containing an internal standard. The incubation mixtures were centrifuged at 10,000' g for 5 min, and aliquots (5 μL) of the supernatants were analyzed by liquid chromatography/tandem mass spectrometry (LC/MS/MS).
(§3) All seven metabolites produced from the cocktail of CYP isoform-specific substrates were simultaneously determined by LC/MS/MS. The system consisted of a tandem quadrupole mass spectrometer (TSQ Quantum Access, ThermoFisher Scientific, CA, USA) coupled with a Nanospace SI-2 LC system. The separation was performed on an Atlantis dC18 column (5 μm, 2.1 mm i.d. × 100 mm, Waters, Waltham, MA, USA) using the gradient elution of a mixture of 5% methanol in 0.1% formic acid (mobile phase A) and 95% methanol in 0.1% formic acid (mobile phase B) at a flow rate of 0.25 mL/min: 10% mobile phase B for 1 min, 10% to 95% mobile phase B for 1 min, 95% mobile phase B for 5 min. The column and autosampler temperatures were 50 °C and 4 °C, respectively. After 1.5 min, the LC eluant was diverted from waste to the mass spectrometer that was fitted with an electrospray ionization (ESI) source and operated in the positive ion mode. The ESI source settings for the ionization of the metabolites were as follows: electrospray voltage, 5.0 kV; vaporizer temperature, 420 °C; capillary temperature 360 °C; sheath gas pressure, 35 psi; auxiliary gas pressure, 10 psi. Quantification was performed by selected reaction monitoring (SRM) of the [M+H]^+ ion and the related product ion for each metabolite. The analytical data were processed using Xcalibur® software (ThermoFisher Scientific).
(§4) The IC50 values (concentration of inhibitor causing 50% inhibition of the original enzyme activity) were calculated using WinNonlin software, a non-linear regression analysis program (Pharsight, Mountain View, CA, USA). The apparent kinetic parameters for inhibitory potential (Ki values) were estimated from the fitted curves using Enzyme Kinetics Ver. 1.3 program (Systat Software Inc., San Jose, CA, USA).

[2] = target: T2, CYP2C19 (Homo sapiens, UniProt P33261); assay: Cocktail probe assay in pooled human liver microsomes: [S]-mephenytoin 4'-hydroxylation (IC50); settings: 50 μM [S]-mephenytoin
T2 construct: pooled human liver microsomes (0.25 mg/mL); tissue BD Gentest Co. H161; host or cells: pooled human liver microsomes
T2 sequence (P33261 whole entry): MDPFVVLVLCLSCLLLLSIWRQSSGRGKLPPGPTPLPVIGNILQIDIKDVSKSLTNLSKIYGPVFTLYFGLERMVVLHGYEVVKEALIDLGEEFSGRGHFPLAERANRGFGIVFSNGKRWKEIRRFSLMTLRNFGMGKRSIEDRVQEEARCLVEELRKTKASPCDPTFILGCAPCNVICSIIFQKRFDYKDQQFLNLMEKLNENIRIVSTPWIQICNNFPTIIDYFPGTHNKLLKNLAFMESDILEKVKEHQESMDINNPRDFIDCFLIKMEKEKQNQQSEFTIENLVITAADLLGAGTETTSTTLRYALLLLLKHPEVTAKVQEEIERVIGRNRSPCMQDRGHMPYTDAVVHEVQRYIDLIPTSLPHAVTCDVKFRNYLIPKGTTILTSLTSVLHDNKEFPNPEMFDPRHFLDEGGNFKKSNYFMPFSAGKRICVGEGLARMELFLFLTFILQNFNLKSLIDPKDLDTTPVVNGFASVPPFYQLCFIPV
Method: (§5) The inhibitory potencies (IC50 values) of eupatilin and jaceosidin were determined with CYP assays in the presence and absence of eupatilin and jaceosidin (final concentrations of 0.1−100 μM with acetonitrile concentration of less than 0.5% v/v) using pooled human liver microsomes. Phenacetin O-deethylase, coumarin 7-hydroxylase, amodiaquine N-deethylase, diclofenac hydroxylase, [S]-mephenytoin 4'-hydroxylase, bufuralol 1'-hydroxylase, and midazolam 1'-hydroxylase activities were determined as probe activities for CYP1A2, CYP2A6, CYP2C8, CYP2C9, CYP2C19, CYP2D6, and CYP3A, respectively, using cocktail incubation and tandem mass spectrometry. The incubation mixtures were prepared in a total volume of 200 μL as follows: pooled human liver microsomes (0.25 mg/mL), 1.3 mM NADPH, 3.3 mM MgCl2, 50 mM potassium phosphate buffer (pH 7.4), and a cocktail of probe substrates and various concentrations of eupatilin or jaceosidin (0.1−100 μM). […] After a 3 min preincubation at 37 °C, the reactions were initiated by adding NADPH and incubated for 20 min at 37 °C with shaking in a water bath. After incubation, the reaction was stopped by placing the tubes on ice and adding 100 μL of ice-cold acetonitrile containing internal standards (0.5 μg/mL [^13C,^15N]-acetaminophen for acetaminophen and N-desethylamodiaquine, 0.5 μg/mL [^2H5]-7-hydroxycoumarin for 7-hydroxycoumarin, 2.0 μg/mL [^13C6]-4-hydoxydiclofenac for 4-hydoxydiclofenac, 0.5 μg/mL [^2H3]-4'-hydoxymephenytoin for 4-hydoxymephenytoin and 1'-hydroxymidazolam, and 0.5 μg/mL [^2H7]-1'-hydroxybufuralol for 1'-hydroxybufuralol). The incubation mixtures were then centrifuged at 10,000× g for 5 min. All incubations were performedin triplicate.
(§6) To evaluate the effect of preincubation on inhibitory potency, eupatilin and jaceosidin (0.1−100 μM) were preincubated for 30 min with NADPH, buffer, and microsomes before the addition of the CYP probe substrates. The reaction was started by addition of the cocktail of probe substrates.
(§7) All seven metabolites produced from the cocktail of CYP isoform-specific substrates were simultaneously determined by LC/MS/MS. The system consisted of a tandem quadrupole mass spectrometer (TSQ Quantum Access, ThermoFisher Scientific, CA, USA) coupled with a Nanospace SI-2 LC system. The separation was performed on an Atlantis dC18 column (5 μm, 2.1 mm i.d. × 100 mm, Waters, Waltham, MA, USA) using the gradient elution of a mixture of 5% methanol in 0.1% formic acid (mobile phase A) and 95% methanol in 0.1% formic acid (mobile phase B) at a flow rate of 0.25 mL/min: 10% mobile phase B for 1 min, 10% to 95% mobile phase B for 1 min, 95% mobile phase B for 5 min. […] Quantification was performed by selected reaction monitoring (SRM) of the [M+H]^+ ion and the related product ion for each metabolite. […]

[3] = system: CYP3A; assay: Cocktail probe assay in pooled human liver microsomes: midazolam 1'-hydroxylation (IC50); settings: for IC50, midazolam 1'-hydroxylation (CYP3A): pooled human liver microsomes, 2.5 μM midazolam
Method: as §5, §6, §3, §4

[4] = target: T3, CYP2A6 (Homo sapiens, UniProt P11509); assay: Cocktail probe assay in pooled human liver microsomes: coumarin 7-hydroxylation (IC50); settings: for IC50, coumarin 7-hydroxylation (CYP2A6): pooled human liver microsomes, 2.5 μM coumarin
T3 construct: pooled human liver microsomes (0.25 mg/mL); tissue BD Gentest Co. H161; host or cells: pooled human liver microsomes
T3 sequence (P11509 1-494): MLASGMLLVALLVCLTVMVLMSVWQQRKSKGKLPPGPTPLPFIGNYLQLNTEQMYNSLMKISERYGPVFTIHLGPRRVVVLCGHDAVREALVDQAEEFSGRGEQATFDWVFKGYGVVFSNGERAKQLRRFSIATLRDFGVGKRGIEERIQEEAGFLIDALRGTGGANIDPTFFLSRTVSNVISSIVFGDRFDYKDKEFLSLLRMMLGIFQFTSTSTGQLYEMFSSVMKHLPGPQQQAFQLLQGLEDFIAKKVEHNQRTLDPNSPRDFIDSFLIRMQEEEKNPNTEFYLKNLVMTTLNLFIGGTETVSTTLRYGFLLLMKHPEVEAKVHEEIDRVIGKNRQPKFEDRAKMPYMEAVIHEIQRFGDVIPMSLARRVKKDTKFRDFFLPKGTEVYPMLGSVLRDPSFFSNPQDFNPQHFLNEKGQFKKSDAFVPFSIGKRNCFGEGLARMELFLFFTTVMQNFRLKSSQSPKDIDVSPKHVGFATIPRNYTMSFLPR
Method: as §5, §6, §3, §4

[5] = target: T4, CYP2C9 (Homo sapiens, UniProt P11712); assay: Kinetic analysis (Ki, inhibition type) in human liver microsomes: diclofenac 4-hydroxylation; settings: pooled human liver microsomes; for Inhibition type, diclofenac 4-hydroxylation (CYP2C9): Lineweaver, Dixon and secondary reciprocal plots
T4 construct: pooled human liver microsomes (0.25 mg/mL); tissue BD Gentest Co. H161; host or cells: pooled human liver microsomes
T4 sequence (P11712 whole entry): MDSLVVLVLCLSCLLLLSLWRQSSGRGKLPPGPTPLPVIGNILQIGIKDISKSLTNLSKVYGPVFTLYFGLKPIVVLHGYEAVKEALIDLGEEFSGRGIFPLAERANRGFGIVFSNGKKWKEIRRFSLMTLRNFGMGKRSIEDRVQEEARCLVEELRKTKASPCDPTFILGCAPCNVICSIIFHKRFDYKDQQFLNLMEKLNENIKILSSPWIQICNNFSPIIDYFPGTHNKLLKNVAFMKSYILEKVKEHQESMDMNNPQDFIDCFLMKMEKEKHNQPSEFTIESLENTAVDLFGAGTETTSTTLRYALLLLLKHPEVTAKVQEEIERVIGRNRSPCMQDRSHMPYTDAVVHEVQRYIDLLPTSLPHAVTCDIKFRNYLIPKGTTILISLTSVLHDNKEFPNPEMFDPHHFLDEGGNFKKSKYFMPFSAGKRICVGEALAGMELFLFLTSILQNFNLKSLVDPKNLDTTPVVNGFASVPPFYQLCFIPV
Method: as §1, §2, §3, §4

[6] = target: T5, CYP2D6 (Homo sapiens, UniProt P10635); assay: Cocktail probe assay in pooled human liver microsomes: bufuralol 1'-hydroxylation (IC50); settings: 5.0 μM bufuralol
T5 construct: pooled human liver microsomes (0.25 mg/mL); tissue BD Gentest Co. H161; host or cells: pooled human liver microsomes
T5 sequence (P10635 whole entry): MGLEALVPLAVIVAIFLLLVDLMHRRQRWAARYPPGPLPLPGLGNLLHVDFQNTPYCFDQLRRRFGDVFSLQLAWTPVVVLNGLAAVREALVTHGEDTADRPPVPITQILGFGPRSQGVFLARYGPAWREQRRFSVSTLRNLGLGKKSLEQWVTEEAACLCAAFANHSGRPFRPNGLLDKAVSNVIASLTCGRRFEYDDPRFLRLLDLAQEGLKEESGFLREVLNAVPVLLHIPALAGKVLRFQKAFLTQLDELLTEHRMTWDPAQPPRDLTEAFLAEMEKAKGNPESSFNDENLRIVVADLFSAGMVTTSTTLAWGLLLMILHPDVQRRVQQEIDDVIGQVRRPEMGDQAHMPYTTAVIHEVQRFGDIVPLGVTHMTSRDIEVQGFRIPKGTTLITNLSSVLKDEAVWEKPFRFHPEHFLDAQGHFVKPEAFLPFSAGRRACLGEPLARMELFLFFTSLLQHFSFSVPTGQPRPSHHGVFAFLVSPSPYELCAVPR
Method: as §5, §6, §7

[7] = target: T6, CYP1A2 (Homo sapiens, UniProt P05177); assay: Kinetic analysis (Ki, inhibition type) in human liver microsomes: phenacetin O-deethylation; settings: pooled human liver microsomes
T6 construct: pooled human liver microsomes (0.25 mg/mL); tissue BD Gentest Co. H161; host or cells: pooled human liver microsomes
T6 sequence (P05177 1-516): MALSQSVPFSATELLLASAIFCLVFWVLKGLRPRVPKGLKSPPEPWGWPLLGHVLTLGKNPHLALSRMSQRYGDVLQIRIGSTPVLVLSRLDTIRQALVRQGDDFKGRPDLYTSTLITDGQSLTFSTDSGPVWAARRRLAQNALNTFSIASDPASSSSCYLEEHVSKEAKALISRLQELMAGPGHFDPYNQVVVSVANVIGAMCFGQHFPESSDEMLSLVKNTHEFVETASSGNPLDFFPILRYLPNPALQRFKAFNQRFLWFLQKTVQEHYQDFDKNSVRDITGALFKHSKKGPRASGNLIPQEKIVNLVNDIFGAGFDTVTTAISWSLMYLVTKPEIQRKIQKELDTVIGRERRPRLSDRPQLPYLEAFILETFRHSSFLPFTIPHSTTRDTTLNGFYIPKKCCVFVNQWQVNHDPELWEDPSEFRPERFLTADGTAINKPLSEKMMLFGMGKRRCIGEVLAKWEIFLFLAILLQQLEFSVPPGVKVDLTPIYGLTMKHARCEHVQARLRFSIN
Method: as §1, §2, §3, §4

[8] = target: T5, CYP2D6; assay: Kinetic analysis (Ki, inhibition type) in human liver microsomes: bufuralol 1'-hydroxylation; settings: pooled human liver microsomes
Method: as §1, §2, §3, §4

[9] = target: T1, CYP2C8; assay: Cocktail probe assay in pooled human liver microsomes: amodiaquine N-deethylation (IC50); settings: 2.0 μM amodiaquine, no preincubation
Method: as §5, with “After incubation, the reaction was stopped by placing the tubes on ice and adding 100 μL of ice-cold acetonitrile containing internal standards (0.5 μg/mL [^13C,^15N]-acetaminophen for acetaminophen and N-desethylamodiaquine, 0.5 μg/mL [^2H5]-7-hydroxycoumarin for 7-hydroxycoumarin, 2.0 μg/mL [^13C6]-4-hydoxydiclofenac for 4-hydoxydiclofenac, 0.5 μg/mL [^2H3]-4'-hydoxymephenytoin for 4-hydoxymephenytoin and 1'-hydroxymidazolam, and 0.5 μg/mL [^2H7]-1'-hydroxybufuralol for 1'-hydroxybufuralol). The incubation mixtures were then centrifuged at 10,000× g for 5 min. All incubations were performedin triplicate.” left out
All seven metabolites produced from the cocktail of CYP isoform-specific substrates were simultaneously determined by LC/MS/MS. […] Quantification was performed by selected reaction monitoring (SRM) of the [M+H]^+ ion and the related product ion for each metabolite. […]

[10] = target: T6, CYP1A2; assay: Cocktail probe assay in pooled human liver microsomes: phenacetin O-deethylation (IC50); settings: 50 μM phenacetin
Method: as §5, §6, §7

[11] = target: T2, CYP2C19; assay: Kinetic analysis (Ki, inhibition type) in human liver microsomes: [S]-mephenytoin 4'-hydroxylation; settings: pooled human liver microsomes; for Inhibition type, S-mephenytoin 4'-hydroxylation (CYP2C19): Lineweaver, Dixon and secondary reciprocal plots
Method: as §1, §2, §3, §4

[12] = target: T4, CYP2C9; assay: Cocktail probe assay in pooled human liver microsomes: diclofenac 4-hydroxylation (IC50); settings: 10 μM diclofenac
Method: as §5, §6, §7

[13] = Lineweaver, Dixon and secondary reciprocal plots
[14] = with 30 min preincubation in presence of NADPH

Structure (SMILES): COc1cc(-c2cc(=O)c3c(O)c(OC)c(O)cc3o2)ccc1O [jaceosidin, 5,7-dihydroxy-2-(4-hydroxy-3-methoxyphenyl)-6-methoxychromen-4-one]
- Ki ([1]; 0.5-5 μM amodiaquine): 109 ± 7.3 µM
- Inhibition type, amodiaquine N-deethylation (CYP2C8) [1, 13]: competitive
- IC50 ([2]; no preincubation): 64.9 ± 4.8 µM
- IC50 [2, 14]: 69.8 ± 3.8 µM
- Inhibition of CYP3A4-catalyzed midazolam 1'-hydroxylation at the highest concentration tested ([3]; 100 μM, human liver microsomes): negligible inhibition
- IC50, midazolam 1'-hydroxylation (CYP3A) ([3]; no preincubation): No inhibition
- IC50, midazolam 1'-hydroxylation (CYP3A) [3, 14]: No inhibition
- Inhibition of CYP2A6-catalyzed coumarin 7-hydroxylation at the highest concentration tested ([4]; 100 μM, human liver microsomes): negligible inhibition
- IC50, coumarin 7-hydroxylation (CYP2A6) ([4]; no preincubation): No inhibition
- IC50, coumarin 7-hydroxylation (CYP2A6) [4, 14]: No inhibition
- Ki ([5]; 1-50 μM diclofenac): 6.4 ± 0.25 µM
- Inhibition type, diclofenac 4-hydroxylation (CYP2C9) [5]: competitive
- Inhibition type, diclofenac 4-hydroxylation (CYP2C9) ([5]; listed as Jaceosidin): competitive
- IC50 ([6]; no preincubation): 79.1 ± 1.8 µM
- IC50 [6, 14]: 82.3 ± 2.4 µM
- Ki ([7]; 10-100 μM phenacetin): 3.8 ± 0.23 µM
- Inhibition type, phenacetin O-deethylation (CYP1A2) [7, 13]: competitive
- Ki ([8]; 0.5-5 μM bufuralol): 57.8 ± 3.6 µM
- Inhibition type, bufuralol 1'-hydroxylation (CYP2D6) [8, 13]: competitive
- IC50 [9]: > 100 µM
- IC50 ([10]; no preincubation): 5.3 ± 0.81 µM
- IC50 [10, 14]: 6 ± 0.45 µM
- Ki ([11]; 10-100 μM [S]-mephenytoin): 45.1 ± 4.2 µM
- Inhibition type, S-mephenytoin 4'-hydroxylation (CYP2C19) [11]: mixed
- Inhibition type, S-mephenytoin 4'-hydroxylation (CYP2C19) ([11]; listed as Jaceosidin): mixed type
- IC50 ([12]; no preincubation): 10.2 ± 1 µM
- IC50 [12, 14]: 8.6 ± 0.91 µM
